Data as given in patent US11773094B2, “Farnesoid X receptor agonists and uses thereof” (Metacrine, Inc., priority 2018, dated 2023).

target: T1, hFXR (Homo sapiens, UniProt Q96RI1); experiment: In Vitro FXR Assay (TK): TK-ECRE-luc reporter in transfected CV-1 cells; format: cell-based; conditions: CV-1 cells transfected with hFXR, hRXR, pCMX-YFP, 18 hrs incubation, luminescence
T1 construct: expressed in transfected cells; host or cells: CV-1 cells
T1 sequence (Q96RI1 1-486): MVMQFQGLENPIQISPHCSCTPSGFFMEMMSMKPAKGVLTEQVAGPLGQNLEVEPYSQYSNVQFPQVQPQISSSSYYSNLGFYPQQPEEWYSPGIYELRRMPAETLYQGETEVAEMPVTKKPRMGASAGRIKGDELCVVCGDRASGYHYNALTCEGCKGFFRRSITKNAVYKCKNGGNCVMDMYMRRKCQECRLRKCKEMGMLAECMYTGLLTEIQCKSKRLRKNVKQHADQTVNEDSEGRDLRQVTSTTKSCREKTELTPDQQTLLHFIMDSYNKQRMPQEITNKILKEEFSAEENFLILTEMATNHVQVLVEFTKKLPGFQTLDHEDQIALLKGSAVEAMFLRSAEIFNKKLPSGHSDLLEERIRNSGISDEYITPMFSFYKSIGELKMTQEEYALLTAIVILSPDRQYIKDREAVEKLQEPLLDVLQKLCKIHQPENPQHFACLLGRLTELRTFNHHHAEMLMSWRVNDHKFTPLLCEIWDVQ
T1 sequence (P19793 1-462 partner): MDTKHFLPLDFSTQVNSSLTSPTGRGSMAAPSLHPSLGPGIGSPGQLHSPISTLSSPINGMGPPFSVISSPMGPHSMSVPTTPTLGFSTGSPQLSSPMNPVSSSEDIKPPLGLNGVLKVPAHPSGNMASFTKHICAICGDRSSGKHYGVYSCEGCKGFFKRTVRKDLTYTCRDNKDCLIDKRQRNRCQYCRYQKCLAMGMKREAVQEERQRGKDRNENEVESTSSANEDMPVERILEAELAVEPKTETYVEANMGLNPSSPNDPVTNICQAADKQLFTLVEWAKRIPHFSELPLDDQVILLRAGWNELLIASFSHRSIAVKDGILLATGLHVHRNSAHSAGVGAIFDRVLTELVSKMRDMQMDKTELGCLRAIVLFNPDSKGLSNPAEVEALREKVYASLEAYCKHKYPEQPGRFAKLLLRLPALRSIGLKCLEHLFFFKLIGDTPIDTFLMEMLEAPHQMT
Method in brief: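 CV-1 cells transiently cotransfected with hFXR, hRXR, TK-ECRE-luc reporter and pCMX-YFP plasmids in charcoal-stripped serum medium. Serially diluted compounds added for 18 h at 37° C., then cells lysed and luciferase luminescence measured.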

EC50 [nM] | SMILES
≤ 10 | CCC(C)(C)n1cc(-c2ccnc(N(CC34CCC(c5ccc(OC)c(C)c5)(CC3)CC4)C(=O)[C@H]3CC[C@H](OC(=O)N4CCC(O)CC4)CC3)c2)cn1 [Compound 4.02, 4-(((4-(4-Methoxy-3-methylphenyl)bicyclo[2.2.2]octan-1-yl)methyl)(4-(1-(tert-pentyl)-1H-pyrazol-4-yl)pyridin-2-yl)carbamoyl) cyclohexyl trans-4-hydroxypiperidine-1-carboxylate]
≤ 10 | COc1ccc([C@]23CC[C@@](CN(c4cc(-c5cnn(C(C)(C)C)c5)ccn4)C(=O)[C@H]4CC[C@H](OC(=O)N5CC(CO)C5)CC4)(CC2)CC3)cc1C [Compound 3.02, 4-((4-(1-(tert-Butyl)-1H-pyrazol-4-yl)pyridin-2-yl)(trans(4-(4-methoxy-3-methylphenyl)bicyclo[2.2.2]octan-1-yl)methyl)carbamoyl) (trans-cyclohexyl) 3-(hydroxymethyl)azetidine-1-carboxylate]
≤ 10 | COc1ccc(C23CCC(CN(c4cc(-c5cnn(C(C)(C)C)c5)ccn4)C(=O)[C@H]4CC[C@H](OC(=O)N5CC[C@@H](O)C5)CC4)(CC2)CC3)cc1C [Compound 2.33, (R)-4-((4-(1-(tert-Butyl)-1H-pyrazol-4-yl)pyridin-2-yl)((4-(4-methoxy-3-methylphenyl)bicyclo[2.2.2]octan-1-yl)methyl)carbamoyl) cyclohexyl trans-3-hydroxypyrrolidine-1-carboxylate]
≤ 10 | COc1ccc(C23CCC(CN(c4cc(-c5cnn(C(C)(C)C)c5)ccn4)C(=O)[C@H]4CC[C@H](OC(=O)N5CC(O)C5)CC4)(CC2)CC3)cc1C [Compound 3, 4-((4-(1-(tert-Butyl)-1H-pyrazol-4-yl)pyridin-2-yl)((4-(4-methoxy-3-methylphenyl)bicyclo[2.2.2]octan-1-yl)methyl)carbamoyl)cyclohexyl 3-hydroxyazetidine-trans-1-carboxylate]
10 to 1000 | COc1c(C)cc(C23CCC(CN(c4nccc(-c5cnn(C(C)(C)C)c5)n4)C(=O)[C@H]4CC[C@H](OC(=O)N5CC(O)C5)CC4)(CC2)CC3)cc1C [Compound 3.15, 4-((4-(1-(tert-Butyl)-1H-pyrazol-4-yl)pyrimidin-2-yl)((4-(4-methoxy-3,5-dimethylphenyl)bicyclo[2.2.2]octan-1-yl)methyl)carbamoyl) (trans-cyclohexyl) 3-hydroxyazetidine-1-carboxylate]
≤ 10 | COc1ccc(C23CCC(CN(c4cc(-c5cnc(C(C)(C)C)s5)ccn4)C(=O)[C@H]4CC[C@H](OC(=O)N5CC(S(C)(=O)=O)C5)CC4)(CC2)CC3)cc1C [Compound 2.03, 4-((4-(2-(tert-Butyl)thiazol-5-yl)pyridin-2-yl)((4-(4-methoxy-3-methylphenyl)bicyclo[2.2.2]octan-1-yl)methyl)carbamoyl) (trans-cyclohexyl) 3-(methylsulfonyl)azetidine-1-carboxylate]
10 to 1000 | COc1ccc(C23CCC(CN(c4cc(-c5ccn(C(C)(C)C)n5)ccn4)C(=O)[C@H]4CC[C@H](OC(=O)N5CC(O)C5)CC4)(CC2)CC3)cc1C [Compound 4.10, 4-((4-(1-(tert-Butyl)-1H-pyrazol-3-yl)pyridin-2-yl)((4-(4-methoxy-3-methylphenyl)bicyclo[2.2.2]octan-1-yl)methyl)carbamoyl) cyclohexyl trans-3-hydroxyazetidine-1-carboxylate]
10 to 1000 | COc1ccc(C23CCC(CN(c4cc(-n5ccc(C(C)(C)C)n5)ccn4)C(=O)[C@H]4CC[C@H](OC(=O)N5CC(O)C5)CC4)(CC2)CC3)cc1C [Compound 2.35, 4-((4-(3-(tert-Butyl)-1H-pyrazol-1-yl)pyridin-2-yl)((4-(4-methoxy-3-methylphenyl)bicyclo[2.2.2]octan-1-yl)methyl)carbamoyl) cyclohexyl trans-3-hydroxyazetidine-1-carboxylate]
≤ 10 | COc1ccc(C23CCC(CN(c4cc(-c5cnn(C(C)(C)C)c5)ccn4)C(=O)[C@H]4CC[C@H](OC(=O)NCCCO)CC4)(CC2)CC3)cc1C [Compound 2.31, 4-((4-(1-(tert-Butyl)-1H-pyrazol-4-yl)pyridin-2-yl)((4-(4-methoxy-3-methylphenyl)bicyclo[2.2.2]octan-1-yl)methyl)carbamoyl) (trans-cyclohexyl) (3-hydroxypropyl)carbamate]
10 to 1000 | CCC(CC)(CC)n1cc(-c2ccnc(N(CC34CCC(c5ccc(OC)c(C)c5)(CC3)CC4)C(=O)[C@H]3CC[C@H](OC(=O)N4CC(O)C4)CC3)c2)cn1 [Compound 4.08, 4-((4-(1-(3-Ethylpentan-3-yl)-1H-pyrazol-4-yl)pyridin-2-yl)((4-(4-methoxy-3-methylphenyl)bicyclo[2.2.2]octan-1-yl)methyl)carbamoyl) cyclohexyl trans-3-hydroxyazetidine-1-carboxylate]
≤ 10 | CCC(C)(CC)n1cc(-c2ccnc(N(CC34CCC(c5ccc(OC)c(C)c5)(CC3)CC4)C(=O)[C@H]3CC[C@H](OC(=O)NCCCO)CC3)c2)cn1 [Compound 4.07, 4-(((4-(4-Methoxy-3-methylphenyl)bicyclo[2.2.2]octan-1-yl)methyl)(4-(1-(3-methylpentan-3-yl)-1H-pyrazol-4-yl)pyridin-2-yl)carbamoyl)cyclohexyl trans-(3-hydroxypropyl)carbamate]
≤ 10 | COc1ccc(C23CCC(CN(c4cc(-c5cnc(C(C)(C)C)s5)ccn4)C(=O)[C@H]4CC[C@H](OC(=O)N5CC(C)(O)C5)CC4)(CC2)CC3)cc1C [Compound 2.01, 4-((4-(2-(tert-Butyl)thiazol-5-yl)pyridin-2-yl)((4-(4-methoxy-3-methylphenyl)bicyclo[2.2.2]octan-1-yl)methyl)carbamoyl) (trans-cyclohexyl) 3-hydroxy-3-methylazetidine-1-carboxylate]
≤ 10 | COc1ccc(C23CCC(CN(c4cc(-c5cnn(C(C)(C)C)c5)ccn4)C(=O)[C@H]4CC[C@H](OC(=O)N5CC[C@H](O)C5)CC4)(CC2)CC3)cc1C [Compound 2.34, (S)-4-((4-(1-(tert-Butyl)-1H-pyrazol-4-yl)pyridin-2-yl)((4-(4-methoxy-3-methylphenyl)bicyclo[2.2.2]octan-1-yl)methyl)carbamoyl) cyclohexyl trans-3-hydroxypyrrolidine-1-carboxylate]
≤ 10 | COc1ccc(C23CCC(CN(c4cc(-c5coc(C(C)(C)C)n5)ccn4)C(=O)[C@H]4CC[C@H](OC(=O)NCCC(C)(C)O)CC4)(CC2)CC3)cc1C [Compound 2.20, 4-((4-(2-(tert-Butyl)oxazol-4-yl)pyridin-2-yl)((4-(4-methoxy-3-methylphenyl)bicyclo[2.2.2]octan-1-yl)methyl)carbamoyl) (trans-cyclohexyl) (3-hydroxy-3-methylbutyl)carbamate]
10 to 1000 | COc1ccc(C23CCC(CN(c4cc(-c5cnc(C(C)(C)C)s5)ccn4)C(=O)[C@H]4CC[C@H](OC(=O)NC5CCOCC5)CC4)(CC2)CC3)cc1C [Compound 3.09, 4-((4-(2-(tert-Butyl)thiazol-5-yl)pyridin-2-yl)((4-(4-methoxy-3-methylphenyl)bicyclo[2.2.2]octan-1-yl)methyl)carbamoyl) cyclohexyl (tetrahydro-2H-pyran-4-yl)trans-carbamate]
10 to 1000 | COc1ccc(C23CCC(CN(c4cc(-c5cnn(C(C)(C)C)c5)ccn4)C(=O)[C@H]4CC[C@H](OC(=O)NC5CC[S+]([O-])CC5)CC4)(CC2)CC3)cc1C (stereo partly drawn) [Compound 2.38, (1r,4r)-4-((4-(1-(tert-Butyl)-1H-pyrazol-4-yl)pyridin-2-yl)((4-(4-methoxy-3-methylphenyl)bicyclo[2.2.2]octan-1-yl)methyl)carbamoyl)cyclohexyl (1-oxidotetrahydro-2H-thiopyran-4-yl)carbamate]
≤ 10 | COc1ccc(C23CCC(CN(c4cc(-c5cnn(C(C)(C)C)c5)ccn4)C(=O)[C@H]4CC[C@H](OC(=O)N5CC(C)(O)C5)CC4)(CC2)CC3)cc1C [Compound 2.22, 4-((4-(1-(tert-Butyl)-1H-pyrazol-4-yl)pyridin-2-yl)((4-(4-methoxy-3-methylphenyl)bicyclo[2.2.2]octan-1-yl)methyl)carbamoyl) (trans-cyclohexyl) 3-hydroxy-3-methylazetidine-1-carboxylate]
≤ 10 | COc1ccc(C23CCC(CN(c4cc(-c5cnn(C(C)(C)C)c5)ccn4)C(=O)[C@H]4CC[C@H](OC(=O)N5CC(S(C)(=O)=O)C5)CC4)(CC2)CC3)cc1C [Compound 2.23, 4-((4-(1-(tert-Butyl)-1H-pyrazol-4-yl)pyridin-2-yl)((4-(4-methoxy-3-methylphenyl)bicyclo[2.2.2]octan-1-yl)methyl)carbamoyl) (trans-cyclohexyl) 3-(methylsulfonyl)azetidine-1-carboxylate]
